Measurements: ChEMBL document CHEMBL5126519, “Tuberculosis drug discovery: Progression and future interventions in the wake of emerging resistance” (Eur J Med Chem, 2022)
≈ marks a conversion by molar mass, not a printed value.

Columns and labels:
[1] = system: Mycobacterium tuberculosis; assay: Antimycobacterial activity against drug-resistant Mycobacterium tuberculosis; assay type: functional
[2] = system: Mycobacterium tuberculosis; assay: Antimycobacterial activity against extensively drug-resistant Mycobacterium tuberculosis; assay type: functional

Compound	MIC [1] [µg/mL]	further results
CCNC(=O)Nc1nc2nc(-c3cnc(C(C)(C)O)nc3)c(F)c([C@H]3CCCO3)c2[nH]1	0.08 (≈ 0.186 µM)	
Cc1cc(/C=C/c2ccc3cc(N(C)C)ccc3[n+]2C)c(C)n1-c1ccccc1.Cc1cc(/C=C/c2ccc3cc(N(C)C)ccc3[n+]2C)c(C)n1-c1ccccc1.O=C(O)c1cc2ccccc2c(Cc2c(O)c(C(=O)O)cc3ccccc23)c1O		MIC99 [1]: 1.55 µg/mL
O=[N+]([O-])c1cn2c(n1)OC[C@@H](OCc1ccc(OC(F)(F)F)cc1)C2 [PRETOMANID]	0.03 (≈ 0.0835 µM)	
C[C@@H](O)[C@H]1C(=O)N2C(C(=O)O)=C(SC3CN(C4=NCCS4)C3)[C@H](C)[C@H]12 [TEBIPENEM]		MIC [2]: 0.3 µM (≈ 0.115 µg/mL)
